Test results reported in patent US20230293403A1, “Compositions Comprising Lipophilic Compounds and One or More (Bio)-Alkanediols” (Symrise AG, priority 2020, published 2023).

Key:
[1] = Maximum solubility of alkanediols in water, visual assessment (Example 6); settings: assessed visually at ambient temperature after 24 h storage at 5° C.; clear mixture = dissolved
[2] = Solubility of different alkanediols or mixtures thereof in sunflower oil (Example 1); assay type: physicochemical
Method: Each 15 g 1,2-pentanediol, 1,2-hexanediol, 1,2-heptanediol or 1,2-octanediol were dissolved in 85 g sunflower oil. Each 15 g of a mixture of 1,2-octanediol and 2,3-octanediol (95:5) or 1,2-heptanediol and 2,3-heptanediol (95:5) were dissolved in 85 g sunflower oil.

[3] = test system: skin (backside of hand) of untrained panelists; assay: Sensory evaluation by untrained panelists: heptanediols, octanediols and their mixtures blended 85:15 with liquid lipophilic components (Example 4, Table 22); set-up: species or system human; settings: in vivo
Method: Test procedure: • Hands were pre-washed with liquid soap by following a defined procedure; • 30 μl of corresponding sample was applied on the backside of each hand (randomized); • After 30 s the spreading behaviour of the respective formulation on skin was evaluated versus the respective oil component without 1,2-heptanediol on a scale from 1 to 5 (1=low spreading; 5=high spreading); • The samples were distributed with the fingertips of middle and forefinger with 2×5 cycles; • After 2 minutes, the fatty/greasy skin feel was evaluated on a scale from 1 to 5 (1=low fatty/greasy skin feel; 5=high fatty/greasy skin feel); • Furthermore the applicants were asked to assess the absorption, i.e. the impression of amount of remaining residue on the skin on a scale from 1 to 5 (1=low absorption; 5=high absorption).
For evaluating the sensory behaviour, liquid lipophilic components specified in the following Table 22 were blended with 1,2-heptanediol or 2,3-heptanediol or a mixture of 1,2-heptanediol and 2,3-heptanediol or 1,2-octanediol or 2,3-octanediol or a mixture of 1,2-octanediol and 2,3-octanediol (formulation) in a ratio of 85:15 and assessed by untrained panelists in comparison to the liquid lipophilic component without addition of the specified alkanediols (placebo).
The test procedure was carried out in the same manner as described in Example 2.

| Structure (SMILES) | Maximum solubility in water [1] | solubility in sunflower oil [2] | improvement in spreading of liquid lipophilic components with poor spreading by nature [3] |
| --- | --- | --- | --- |
| CCCCCCCC(O)CO (stereo not drawn) [1,2-nonanediol] | 0.1 % by weight | – | – |
| CCCCCC(O)CO (stereo not drawn) [1,2-heptanediol] | 2.5 % by weight | better solubility | perform best |
| CCCCCCC(O)CO (stereo not drawn) [Hydrolite ® 8, Caprylyl Glycol] | 0.5 % by weight | – | – |

Results, then the compound that gave them:

| Maximum solubility in water [1] | solubility in sunflower oil [2] | improvement in spreading of liquid lipophilic components with poor spreading by nature [3] | Structure (SMILES) |
| --- | --- | --- | --- |
| 0.3 % by weight | – | – | CCCCCCC(O)C(C)O (stereo not drawn) [2,3-nonanediol] |
| – | tends to precipitate or recrystallize | – | CCCCCCC(O)CO (stereo not drawn) [1,2-octanediol] |
| 1.5 % by weight | – | – | CCCCCC(O)C(C)O (stereo not drawn) [2,3-octanediol] |
| 3.6 % by weight | – | – | CCCCC(O)C(C)O (stereo not drawn) [2,3-heptanediol] |
